The values below come from patent US7507729B2, “Substituted imidazo-[1,5-a][1,2,4]triazolo[1,5-d][1,4] benzodiazepine derivatives” (priority 2005, dated 2009).

Where a name gives a salt, the structure may show the parent alone. Read-outs that look alike come from different tables or passages of the source.

In experiment [1] the target is T1, GABA A receptor α1β3γ2 (hα1) (Homo sapiens, UniProt P14867+P18507).
T1 construct: expressed in transfected cells; host or cells: HEK293, transiently transfected; membranes
Kind of experiment: [3H]flumazenil competition binding, membranes of HEK293 cells expressing human GABA A α1β3γ2. On the procedure: (§1) The affinity of compounds at GABA A receptor subtypes was measured by competition for [^3H]flumazenil (85 Ci/mmol; Roche) binding to HEK293 cells expressing rat (stably transfected) or human (transiently transfected) receptors of composition α1β3γ2, α2β3γ2, α3β3γ2 and α5β3γ2.
(§2) Cell pellets were suspended in Krebs-tris buffer (4.8 mM KCl, 1.2 mM CaCl2, 1.2 mM MgCl2, 120 mM NaCl, 15 mM Tris; pH 7.5; binding assay buffer), homogenized by polytron for ca. 20 sec on ice and centrifuged for 60 min at 4° C. (50000 g; Sorvall, rotor: SM24=20000 rpm). The cell pellets were resuspended in Krebs-tris buffer and homogenized by polytron for ca. 15 sec on ice. Protein was measured (Bradford method, Bio-Rad) and aliquots of 1 mL were prepared and stored at −80° C.
(§3) Radioligand binding assays were carried out in a volume of 200 μL (96-well plates) which contained 100 μL of cell membranes, [^3H]flumazenil at a concentration of 1 nM for α1, α2, α3 subunits and 0.5 nM for α5 subunits and the test compound in the range of 10^−10-3×10^−6 M.
(§4) Nonspecific binding was defined by 10^−5 M diazepam and typically represented less than 5% of the total binding. Assays were incubated to equilibrium for 1 hour at 4° C. and harvested onto GF/C uni-filters (Packard) by filtration using a Packard harvester and washing with ice-cold wash buffer (50 mM Tris; pH 7.5). After drying, filter-retained radioactivity was detected by liquid scintillation counting. Ki values were calculated using Excel-Fit (Microsoft) and are the means of two determinations.

The target of experiment [2] is T2, GABA A receptor α5β3γ2 (hα5) (Homo sapiens, UniProt P18507+P31644).
T2 construct: expressed in transfected cells; host or cells: HEK293, transiently transfected; membranes
The experiment is described as follows: [3H]flumazenil competition binding, membranes of HEK293 cells expressing human GABA A α5β3γ2. The settings on record: [3H]flumazenil 0.5 nM, 1 hour at 4° C., means of two determinations; read-out: Ki[nM] hα5. As to the method: as §1, §2, §3, §4

[3] abbreviates: [3H]flumazenil 1 nM, 1 hour at 4° C., means of two determinations, read-out: Ki[nM] hα1.

The term Ki denotes a measure of affinity in units of concentration, obtained from inhibition or displacement. In the case of “3-Bromo-10-chloro-6-(hydroxy-phenyl-ethyl)-9H-imidazo[1,5-a][1,2,4]triazolo[1,5-d][1,4]benzodiazepine [Example 54]”, the inhibitory constant (Ki) was found to be 34.6 nM in experiment [1] (setting [3]) and 0.9 nM in experiment [2].
For `CCOC(=O)c1ncn2c1Cn1nc(COC)nc1-c1cc(Cl)ccc1-2` [Example 4, Ethyl 3-chloro-6-methoxymethyl-9H-imidazo[1,5-a][1,2,4]triazolo[1,5-d][1,4]benzodiazepine-10-carboxylate], the Ki in experiment [1] is 8.5 nM; in experiment [2], 0.3 nM.
As for `Clc1ccc2c(c1)-c1nc(Cn3nccn3)nn1Cc1c(Cl)ncn1-2` [Example 10, 3,10-Dichloro-6-[1,2,3]triazol-2-ylmethyl-9H-imidazo[1,5-a][1,2,4]triazolo[1,5-d][1,4]benzodiazepine], the figures for the inhibitory constant (Ki) in experiment [1] and in experiment [2] were 63.3 nM and 0.4 nM, respectively.
Taken in the same sequence, the figures for `Clc1ccc2c(c1)-c1nc(Cn3ccnn3)nn1Cc1c(Cl)ncn1-2` [Example 11, 3,10-Dichloro-6-[1,2,3]triazol-1-ylmethyl-9H-imidazo[1,5-a][1,2,4]triazolo[1,5-d][1,4]benzodiazepine] were 48.3 nM and 0.5 nM.
For the compound `Clc1ccc2c(c1)-c1nc(Cn3cncn3)nn1Cc1c(Cl)ncn1-2` [Example 12, 3,10-Dichloro-6-[1,2,4]triazol-1-ylmethyl-9H-imidazo[1,5-a][1,2,4]triazolo[1,5-d][1,4]benzodiazepine], the Ki was 51.8 nM in experiment [1] and 0.8 nM in experiment [2].
Taken in the same sequence, the figures for `Clc1ccc2c(c1)-c1nc(Cn3cccn3)nn1Cc1c(Cl)ncn1-2` [Example 13, 3,10-Dichloro-6-pyrazol-1-ylmethyl-9H-imidazo[1,5-a][1,2,4]triazolo[1,5-d][1,4]benzodiazepine] were 30.7 nM and 0.9 nM.
With `Clc1ccc2c(c1)-c1nc(Cn3nc4ccccc4n3)nn1Cc1c(Cl)ncn1-2` [Example 21, 6-Benzotriazol-2-ylmethyl-3,10-dichloro-9H-imidazo[1,5-a][1,2,4]triazolo[1,5-d][1,4]benzodiazepine], in experiment [1] (setting [3]), the Ki came to 133 nM.
On to `Clc1ccc2c(c1)-c1nc(Cn3nnc4ccccc43)nn1Cc1c(Cl)ncn1-2` [Example 22, 6-Benzotriazol-1-ylmethyl-3,10-dichloro-9H-imidazo[1,5-a][1,2,4]triazolo[1,5-d][1,4]benzodiazepine], for which the inhibition constant Ki worked out at 53 nM in experiment [1] and 0.4 nM in experiment [2].
Take `Clc1ccc2c(c1)-c1nc(Cn3cc4ccccc4n3)nn1Cc1c(Cl)ncn1-2` [Example 26, 3,10-Dichloro-6-indazol-2-ylmethyl-9H-imidazo[1,5-a][1,2,4]triazolo[1,5-d][1,4]benzodiazepine]: the Ki in experiment [1] (setting [3]) was determined as 111 nM.
Take `O=C1CCCN1Cc1nc2n(n1)Cc1c(Cl)ncn1-c1ccc(Br)cc1-2` [Example 49, 3-Bromo-10-chloro-6-(2-oxo-pyrrolidin-1-ylmethyl)-9H-imidazo[1,5-a][1,2,4]triazolo[1,5-d][1,4]benzodiazepine]: the Ki worked out at 114 nM in experiment [1] and 0.9 nM in experiment [2].
`O=C1OCCN1Cc1nc2n(n1)Cc1c(Cl)ncn1-c1ccc(Br)cc1-2` [Example 50] displayed a Ki in experiment [1] of 85.7 nM.
As for `OC(c1cccnc1)c1nc2n(n1)Cc1c(Cl)ncn1-c1ccc(Br)cc1-2` (stereo not shown) [Example 58, 3-Bromo-10-chloro-6-(hydroxy-pyridin-3-yl-methyl)-9H-imidazo[1,5-a][1,2,4]triazolo[1,5-d][1,4]benzodiazepine], the Ki stood at 69.4 nM in experiment [1] (setting [3]) and 0.7 nM in experiment [2].
On to `O=C(Cc1nc2n(n1)Cc1c(Cl)ncn1-c1ccc(Br)cc1-2)NC1CCCC1` [Example 61, 3-Bromo-10-chloro-6-cyclopentylcarbamoylmethyl-9H-imidazo[1,5-a][1,2,4]triazolo[1,5-d][1,4]benzodiazepine], for which the Ki in experiment [1] is 91.7 nM; in experiment [2] it was 0.6 nM.
The like results for `O=C(Cc1nc2n(n1)Cc1c(Cl)ncn1-c1ccc(Br)cc1-2)NC1CCOCC1` [Example 62, 3-Bromo-10-chloro-6-[(tetrahydro-pyran-4-ylcarbamoyl)-methyl]-9H-imidazo[1,5-a][1,2,4]triazolo[1,5-d][1,4]benzodiazepine] were, in that order, 88.4 nM and 0.7 nM.
The like results for `O=C(Cc1nc2n(n1)Cc1c(Cl)ncn1-c1ccc(Br)cc1-2)NCc1cccnc1` [Example 63, 3-Bromo-10-chloro-6-{[(Pyridin-3-ylmethyl)-carbamoyl]-methyl}-9H-imidazo[1,5-a][1,2,4]triazolo[1,5-d][1,4]benzodiazepine] were, in that order, 64.7 nM and 0.8 nM.
Take `O=C(Cc1nc2n(n1)Cc1c(Cl)ncn1-c1ccc(Br)cc1-2)NCC1CC1` [Example 64, 3-Bromo-10-chloro-6-[(cyclopropylmethyl-carbamoyl)-methyl]-9H-imidazo[1,5-a][1,2,4]triazolo[1,5-d][1,4]benzodiazepine]: the Ki in experiment [1] stood at 68.8 nM; in experiment [2] it was 0.5 nM.
In turn, `O=C(Cc1nc2n(n1)Cc1c(Cl)ncn1-c1ccc(Br)cc1-2)NCCO` [Example 65, 3-Bromo-10-chloro-6-[(2-hydroxy-ethylcarbamoyl)-methyl]-9H-imidazo[1,5-a][1,2,4]triazolo[1,5-d][1,4]benzodiazepine] showed a Ki in experiment [1] of 149 nM.
Take `COCC1CN(Cc2nc3n(n2)Cc2c(Cl)ncn2-c2ccc(Br)cc2-3)C(=O)O1` (stereo not shown) [Example 83, 3-Bromo-10-chloro-6-(5-methoxymethyl-2-oxo-oxazolidin-3-ylmethyl)-9H-imidazo[1,5-a][1,2,4]triazolo[1,5-d][1,4]benzodiazepine]: the inhibition constant (Ki) in experiment [1] (setting [3]) stood at 113 nM.
For `Cc1ccc(Cc2nc3n(n2)Cc2c(C)ncn2-c2ccc(Br)cc2-3)cn1` [Example 124, 3-Bromo-10-methyl-6-(6-methyl-pyridin-3-ylmethyl)-9H-imidazo[1,5-a][1,2,4]triazolo[1,5-d][1,4]benzodiazepine], the Ki in experiment [1] (setting [3]) came out at 219 nM.
The same measure, in the same setting: for `Cc1ncn2c1Cn1nc(Cn3ccnn3)nc1-c1cc(Br)ccc1-2` [Example 162, 3-Bromo-10-methyl-6-[1,2,3]triazol-1-ylmethyl-9H-imidazo[1,5-a][1,2,4]triazolo[1,5-d][1,4]benzodiazepine hydrochloride (1:1)] the value was 152 nM.
In turn, `COc1ccccc1Cc1nc2n(n1)Cc1c(C)ncn1-c1ccc(Br)cc1-2` [Example 168, 3-Bromo-6-(2-methoxy-benzyl)-10-methyl-9H-imidazo[1,5-a][1,2,4]triazolo[1,5-d][1,4]benzodiazepine hydrochloride (1:1)] returned a Ki in experiment [1] of 63.4 nM.
In the case of `Cc1cc(Cc2nc3n(n2)Cc2c(C)ncn2-c2ccc(Cl)cc2-3)ccn1` [Example 191, 3-Chloro-10-methyl-6-(2-methyl-pyridin-4-ylmethyl)-9H-imidazo[1,5-a][1,2,4]triazolo[1,5-d][1,4]benzodiazepine], in experiment [1] (setting [3]), the Ki was found to be 266 nM.
`Cc1ncn2c1Cn1nc(Cn3ccnn3)nc1-c1cc(Cl)ccc1-2` [Example 364, 3-Chloro-10-methyl-6-[1,2,3]triazol-1-ylmethyl-9H-imidazo[1,5-a][1,2,4]triazolo[1,5-d][1,4]benzodiazepine hydrochloride (1:1)]: in experiment [1] (setting [3]), the inhibitory constant (Ki) amounted to 134 nM.
For `Cc1ncn2c1Cn1nc(Cc3ccn[nH]3)nc1-c1ccccc1-2` [Example 380, 10-Methyl-6-(2H-pyrazol-3-ylmethyl)-9H-imidazo[1,5-a][1,2,4]triazolo[1,5-d][1,4]benzodiazepine hydrochloride (1:1)], in experiment [1], the Ki stood at 56.6 nM.
